# From ChEMBL document CHEMBL6182943, “Identification of 4'-Thiouridine as an Orally Available Antiviral Agent Targeting Both RdRp and NiRAN Functions of SARS-CoV-2 Nsp12” (J Med Chem, 2025)
# Assays:
# [1] = Cytotoxicity against human H1-HeLa cells assessed as reduction in cell viability incubated for 72 hrs; assay type: toxicity, cell-based
# rhinovirus B14 = test: Antiviral activity against Human rhinovirus B14 infected in human H1-HeLa cells incubated for 72 hrs; assay type: functional, organism-based; details: Rhinovirus B
# [2] = Selectivity index, ratio of CC50 for cytotoxicity against human H1-HeLa cells to EC50 for antiviral activity against Human rhinovirus B14 infected in human H1-HeLa cells; assay type: toxicity, cell-based; details: read-out: Ratio CC50/EC50
# [3] = Cytotoxicity against HEK293T cells assessed as reduction in cell viability measured after 48 hrs by MTT assay; assay type: toxicity, cell-based, HEK-293T; details: human
# [4] = Selectivity index, ratio of CC50 for cytotoxicity against African green monkey Vero cells to EC50 for antiviral activity against SARS-CoV-2 infected in african green monkey Vero cells assessed as reduction in number of spike-protein expressing cells; assay type: toxicity, cell-based; details: read-out: Ratio CC50/EC50
# [5] = Cytotoxicity against human Huh-7 cells assessed as reduction in cell viability by MTT-based cell viability assay; assay type: toxicity
# Human coronavirus NL63 = test: Antiviral activity against HCoV-NL63 infected in LLC-MK2 cells assessed as inhibition of virus-induced cytopathic effect measured 2 to 7 days post infection by MTT-based cell viability assay; assay type: functional, organism-based
# SARS-CoV-2 [6] = test: (§1) Antiviral activity against SARS-CoV-2 Wuhan-like (hCoV-19/Korea/KCDC06/2020) infected in human Calu-3 cells assessed as reduction in number of spike-protein expressing cells pre-infected for 30 mins followed by compound addition and measured 48 hrs post-infection by DAPI staining based immunofluorescence analysis relative to control; assay type: functional, organism-based; details: Severe acute respiratory syndrome coronavirus 2, Wuhan-like (hCoV-19/Korea/KCDC06/2020)
# [7] = Selectivity index, ratio of CC50 for cytotoxicity against human Calu-3 cells to EC50 for antiviral activity against SARS-CoV-2 Omicron (hCoV-19/Korea/KDCA447321/2021) infected in human Calu-3 cells assessed as reduction in number of spike-protein expressing cells; assay type: toxicity, cell-based; details: read-out: Ratio CC50/EC50
# SARS-CoV-2 [8] = test: Antiviral activity against SARS-CoV-2 infected in african green monkey Vero cells assessed as reduction in number of spike-protein expressing cells pre-infected for 30 mins followed by compound addition and measured 48 hrs post-infection by DAPI staining based immunofluorescence analysis; assay type: functional, organism-based; details: Severe acute respiratory syndrome coronavirus 2, Vero
# SARS-CoV-2 [9] = test: as §1, with “Gamma (hCoV-19/Korea95637/KDCA/2021)” for “Wuhan-like (hCoV-19/Korea/KCDC06/2020)”; assay type: functional, organism-based; details: Severe acute respiratory syndrome coronavirus 2, Gamma (hCoV-19/Korea95637/KDCA/2021)
# [10] = Selectivity index, ratio of CC50 for cytotoxicity against HEK293T cells to EC50 for antiviral activity against Zaire Ebola virus infected in HEK293T cells transfected with viral replication protein and Renilla luciferase; assay type: toxicity, cell-based; details: human, read-out: Ratio CC50/EC50
# [11] = Selectivity index, ratio of CC50 for cytotoxicity against human Huh-7 cells to EC50 for antiviral activity against MERS-CoV KOR/KNIH/002_05_2015 infected in human Huh-7 cells assessed as inhibition of virus-induced cytopathic effect; assay type: toxicity, cell-based; details: read-out: Ratio CC50/EC50
# SARS-CoV-2 [12] = test: as §1, with “Omicron (hCoV-19/Korea/KDCA447321/2021)” for “Wuhan-like (hCoV-19/Korea/KCDC06/2020)”; assay type: functional, organism-based; details: Severe acute respiratory syndrome coronavirus 2, Omicron (hCoV-19/Korea/KDCA447321/2021)
# Zaire ebolavirus = test: Antiviral activity against Zaire Ebola virus infected in HEK293T cells transfected with viral replication protein and Renilla luciferase pre-infected for 4 hrs followed by compound addition and measured after 48 hrs by Dual-luciferase reporter assay; assay type: functional, organism-based; details: HEK-293T
# [13] = Selectivity index, ratio of CC50 for cytotoxicity against human Calu-3 cells to EC50 for antiviral activity against SARS-CoV-2 Wuhan-like (hCoV-19/Korea/KCDC06/2020) infected in human Calu-3 cells assessed as reduction in number of spike-protein expressing cells; assay type: toxicity, cell-based; details: read-out: Ratio CC50/EC50
# [14] = Cytotoxicity against African green monkey Vero cells assessed as reduction in cell viability incubated for 48 hrs by MTT assay; assay type: toxicity, cell-based; details: chlorocebus sabaeus
# [15] = Selectivity index, ratio of CC50 for cytotoxicity against human Calu-3 cells to EC50 for antiviral activity against SARS-CoV-2 Delta (hCoV-19/Korea/KDCA119861/2021) infected in human Calu-3 cells assessed as reduction in number of spike-protein expressing cells; assay type: toxicity, cell-based; details: read-out: Ratio CC50/EC50
# [16] = Cytotoxicity against human Calu-3 cells assessed as reduction in cell viability incubated for 48 hrs by MTT assay; assay type: toxicity, cell-based
# [17] = Selectivity index, ratio of CC50 for cytotoxicity against human Calu-3 cells to EC50 for antiviral activity against SARS-CoV-2 Gamma (hCoV-19/Korea95637/KDCA/2021) infected in human Calu-3 cells assessed as reduction in number of spike-protein expressing cells; assay type: toxicity, cell-based; details: read-out: Ratio CC50/EC50
# [18] = system: Middle East respiratory syndrome-related coronavirus; test: Antiviral activity against MERS-CoV KOR/KNIH/002_05_2015 infected in human Huh-7 cells assessed as inhibition of virus-induced cytopathic effect measured 2 to 7 days post infection by MTT-based cell viability assay; assay type: functional, organism-based; details: KOR/KNIH/002_05_2015, Huh-7
# [19] = Selectivity index, ratio of CC50 for cytotoxicity against rhesus monkey LLC-MK2 cells to EC50 for antiviral activity against HCoV-NL63 infected in rhesus monkey LLC-MK2 cells assessed as inhibition of virus-induced cytopathic effect; assay type: toxicity, cell-based; details: read-out: Ratio CC50/EC50
# SARS-CoV-2 [20] = test: as §1, with “Delta (hCoV-19/Korea/KDCA119861/2021)” for “Wuhan-like (hCoV-19/Korea/KCDC06/2020)”; assay type: functional, organism-based; details: Severe acute respiratory syndrome coronavirus 2, Delta (hCoV-19/Korea/KDCA119861/2021)
# [21] = Cytotoxicity against rhesus monkey LLC-MK2 cells assessed as reduction in cell viability by MTT-based cell viability assay; assay type: toxicity, Macaca mulatta
structure (smiles),measurement,setting,value
CCOC(=O)/C=C/[C@H](C[C@@H]1CCNC1=O)NC(=O)[C@@H](CC(=O)[C@@H](NC(=O)c1cc(C)on1)C(C)C)Cc1ccc(F)cc1,CC50 at 72 h,[1],> 100000 nM
same,EC50,rhinovirus B14,570 nM
same,selectivity ratio,[2],> 176
CCC(CC)COC(=O)[C@H](C)N[P@](=O)(OC[C@H]1O[C@@](C#N)(c2ccc3c(N)ncnn23)[C@H](O)[C@@H]1O)Oc1ccccc1,CC50 at 48 h,[3],2620 nM
same,selectivity ratio,[4],> 20.7
same,CC50,[5],19600 nM
same,EC50,Human coronavirus NL63,140 nM
same,EC50,SARS-CoV-2 [6],570 nM
same,selectivity ratio,[7],> 24.7
same,EC50,SARS-CoV-2 [8],4830 nM
same,EC50,SARS-CoV-2 [9],1370 nM
same,selectivity ratio,[10],14.2
same,selectivity ratio,[11],> 348
same,EC50,SARS-CoV-2 [12],984 nM
same,EC50,Zaire ebolavirus,180 nM
same,selectivity ratio,[13],> 174
same,CC50 at 48 h,[14],> 100000 nM
same,selectivity ratio,[15],> 41.6
same,CC50 at 48 h,[16],> 100000 nM
same,selectivity ratio,[17],> 73.1
same,EC50,[18],< 42 nM
same,selectivity ratio,[19],> 702
same,EC50,SARS-CoV-2 [20],2400 nM
same,CC50,[21],> 100000 nM
